Where two headings read alike, the source gives them in different places.
What was measured:
[1] = target: T1, HsCKα1 (Homo sapiens, UniProt P35790); test: Ki determination and mode of inhibition; type: biochemical; conditions: for α, HsCKα1, ATP / α, HsCKα1, Cho: alpha factor of mixed inhibition
T1 construct: made in house
Method: (§1) A continuous spectrophotometric 96-well plate assay was established for CK and EK activity based on an assay described. […] The reaction was initiated by addition of enzyme or substrate, as appropriate, and the rate of reaction was monitored by following the decrease in absorbance at 341 nm for 10 min at room temperature using a Thermo Multiska spectrophotometer. Experiments were carried out to ensure that coupling enzymes were not rate-limiting under any of the conditions used and control experiments lacking substrates and/or enzyme were carried out to correct for any background rate.
(§2) Activity was measured at 3–4 different concentrations of inhibitor and a fixed concentration of one substrate (as specified in the standard assay) while the second substrate was varied. GraphPad Prism 6 (GraphPad Software Inc.) was used to fit data to different inhibition models with the best fit being determined by Aike’s Informative Criteria. Kis were estimated from the best-fit model and results were reinforced by linear re-plots of the data (Lineweaver Burke, Dixon, s/v against I)[38].

[2] = target: T2, PfCK (Plasmodium falciparum, UniProt Q8IM71); test: Ki determination and mode of inhibition; type: biochemical
T2 construct: made in house
T2 sequence (Q8IM71 1-440): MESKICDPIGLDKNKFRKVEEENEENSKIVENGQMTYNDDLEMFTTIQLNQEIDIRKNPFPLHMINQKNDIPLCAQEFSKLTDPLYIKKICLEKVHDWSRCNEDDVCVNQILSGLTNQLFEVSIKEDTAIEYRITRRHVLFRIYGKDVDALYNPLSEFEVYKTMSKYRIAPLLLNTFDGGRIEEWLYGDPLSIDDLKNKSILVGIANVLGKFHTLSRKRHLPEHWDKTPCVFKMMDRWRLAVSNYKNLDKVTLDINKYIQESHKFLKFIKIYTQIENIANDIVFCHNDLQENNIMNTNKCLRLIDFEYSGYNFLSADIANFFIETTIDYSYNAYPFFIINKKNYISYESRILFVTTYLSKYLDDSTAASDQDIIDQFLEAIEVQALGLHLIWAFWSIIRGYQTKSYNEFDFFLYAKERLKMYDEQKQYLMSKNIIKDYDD
Method: as §1, §2

[3] = system: P. falciparum; set-up: method as in PMID 25089811; conditions: blood stages of the parasite, in vitro; read-out: IC50 against P. falciparum; cited from earlier work
[4] = ATP as variable substrate, read-out: Ki, HsCKα1, ATP
[5] = read-out: Ki, HsCKα1, Cho, Cho as variable substrate
[6] = read-out: Ki, HsCKα1, with respect to Cho, mixed inhibition, approximate value
[7] = ATP as variable substrate, read-out: Ki, PfCK, ATP
[8] = Etn as variable substrate, read-out: Ki, PfCK, Etn
[9] = alpha factor of mixed inhibition, Cho as variable substrate
[10] = competitive inhibition, approximate value, read-out: Ki, PfCK, with respect to Etn
[11] = read-out: Ki, PfCK, Cho, Cho as variable substrate
[12] = read-out: Ki, PfCK, against Cho, mixed inhibition, approximate value

T1 sequence (P35790 whole entry): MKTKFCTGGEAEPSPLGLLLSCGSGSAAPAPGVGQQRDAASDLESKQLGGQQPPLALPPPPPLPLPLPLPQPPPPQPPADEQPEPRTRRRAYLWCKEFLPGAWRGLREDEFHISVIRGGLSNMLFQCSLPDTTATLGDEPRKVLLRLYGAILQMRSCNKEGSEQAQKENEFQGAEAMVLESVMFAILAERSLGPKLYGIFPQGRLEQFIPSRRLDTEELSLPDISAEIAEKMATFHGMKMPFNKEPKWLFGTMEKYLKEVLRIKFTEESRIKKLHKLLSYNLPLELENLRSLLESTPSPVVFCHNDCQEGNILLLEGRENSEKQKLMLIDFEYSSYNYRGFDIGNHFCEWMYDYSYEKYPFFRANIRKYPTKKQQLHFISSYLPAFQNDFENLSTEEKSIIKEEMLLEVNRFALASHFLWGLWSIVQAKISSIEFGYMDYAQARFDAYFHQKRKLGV

| SMILES | mode of inhibition, HsCKα1, ATP ([1]; ATP as variable substrate) | Ki [1, 4] [nM] | mode of inhibition, HsCKα1, Cho ([1]; Cho as variable substrate) | α, HsCKα1, ATP ([1]; ATP as variable substrate) | α, HsCKα1, Cho ([1]; Cho as variable substrate) | Ki ([1]; mixed inhibition, approximate value, read-out: Ki, HsCKα1, with respect to ATP) [nM] | Ki [1, 5] [nM] | Ki [1, 6] [nM] | mode of inhibition, PfCK, ATP ([2]; ATP as variable substrate) | Ki [2, 7] [µM] | mode of inhibition, PfCK, Cho ([2]; Cho as variable substrate) | mode of inhibition, PfCK, Etn ([2]; Etn as variable substrate) | Ki [2, 8] [µM] | α, PfCK, Cho [2, 9] | Ki [2, 10] [µM] | Ki [2, 11] [µM] | Ki [2, 12] [µM] | IC50 [3] [nM] | α, PfCK, ATP ([2]; alpha factor of mixed inhibition, ATP as variable substrate) |
| --- | --- | --- | --- | --- | --- | --- | --- | --- | --- | --- | --- | --- | --- | --- | --- | --- | --- | --- | --- |
| CN(C)c1cc[n+](Cc2ccc(-c3ccc(C[n+]4ccc(N5CCCC5)cc4)cc3)cc2)cc1.[Br-].[Br-] [BR23] | Mixed | 3700 | Mixed | 0.73 | 59 | ~4000 | 114 | ~100 | Competitive | 116 | Mixed | Competitive | 4.1 | 3.915 | ~4 | 38.2 | ~35 | 3 |  |
| CN(C)c1cc[n+](Cc2ccc(CCCCc3ccc(C[n+]4ccc(N5CCCC5)cc4)cc3)cc2)cc1.[Br-].[Br-] [BR25] | Mixed | 4100 | Mixed | 0.49 | 139 |  | 100 | ~100 | Mixed | 65.5 | Mixed | Competitive | 4 | 2.025 | ~4 | 31.9 | ~35 | 2 | 2.37 |

From PMC5018819 (Scientific Reports, 2016)
